Measurements published in US20250144247A1, “FORMULATIONS TO ENHANCE THE DELIVERY OF GENE THERAPY VECTORS” (priority 2023, published 2025).

What was measured:
[1] = test system: human airway epithelial cells (HAE); experiment: Transepithelial electrical resistance (TEER) of HAE after apical reagent; type: cell-based; settings: apical 5 minutes; LPC 0.1%, EGTA 250 mM, doxorubicin 5 μM, NaCl 3.6%, Infasurf 35 mg/ml
Experimental: The University of Iowa In Vitro Models and Cell Culture Core cultured and maintained human airway epithelial cells (HAE) as previously described (33). Briefly, following enzymatic disassociation of trachea and bronchus epithelia, the cells were seeded onto collagen-coated, polycarbonate transwell inserts (0.4 μm pore size; surface area=0.33 cm^2; Corning Costar, Cambridge, MA). HAE were submerged in Ultroser G (USG) medium for 24 hours (37° C. and 5% CO2) at which point the apical media is removed to encourage polarization and differentiation at an air-liquid interface. Transepithelial electrical resistance was measured using an Ohmmeter […]
Disrupting the epithelial tight junctions allows Ad5-based viral vectors access to their basolaterally localized coxsackie and adenovirus receptor (CXADR) (12). Unless otherwise specified, these studies use the Ad5 serotype. […] First, reagents were applied to the apical surface of HAE for 5 minutes and then TEER was measured using an ohmmeter. […] In separate cultures, Ad-GFP (MOI=250) in 50 μl of DMEM combined 1:1 with the test reagents was applied to the apical surface for 2 hours. 5 days post-treatment, cells were imaged by fluorescence microscopy.

[2] = test system: human airway epithelial cells (HAE); type: cell-based

## [Cl-].[Na+] [NaCl, sodium chloride]
[1]
  transepithelial electrical resistance (TEER): decreased TEER
[2]; MOI=50, NaCl formulation
  transduction of primary human CF cultures, GP64 HIV-GFP: remarkable levels of transduction
[2]; non-CF HAE, 3.5, 4 or 4.5% NaCl, MOI=50
  GFP expression, GP64 HIV vector: dose-dependent increase in GFP expression
